Source: a compilation of properties of binary mixtures (doi:10.1021/je1012444)

Assay: xn = mol fraction of the nth substance listed
Conditions: 100 kPa

CCCC[n+]1ccn(C)c1.F[P-](F)(F)(F)(F)F + c1ccccc1
viscosity [mPa·s]
Conditions | x2 = 0.0999 | x2 = 0.2002 | x2 = 0.3003 | x2 = 0.3953 | x2 = 0.5001 | x2 = 0.6779
313.2 K | 54.8 | 40.7 | 29 | 18.5 | 11.2 | 7.2
333.2 K | 26.9 | 22 | 15.1 | 9.6 | 7.6 | –
